# Assay results published in US20240269116A1, “USE OF MMP INHIBITORS FOR TREATING ACUTE RESPIRATORY DISTRESS SYNDROME” (Foresee Pharmaceuticals Co., Ltd., priority 2021, published 2024).
# Entries after “also recorded” stand apart in the source; their conditions may differ.
# System: LPS-induced acute lung injury (ALI)
# Assay: LPS-induced mice acute lung injury (ALI) model, BAL fluid cell counts and lung histology at 24 hours
# Assay type: in vivo, Male C57BL/6 mice
# Procedure: The compound of formula (F-I) was evaluated for the therapeutic efficacy in the LPS-induced mice ALI model. In this study, animals were anesthetized with 2.5% isoflurane inhalation. LPS was used to create ALI at the dose of 3 mg/kg in 50 μl via a direct intratracheal injection. For sham animals, an equal volume of saline solution was directly injected into the trachea. After LPS injection, the test article compound of formula (F-I) was dosed at different single oral doses and different therapeutic time points. Male C57BL/6 mice (n=100) were used in this study. DEX was used as positive control. Animals were randomly divided into 10 groups and dose regimens are described in Table 1. At 24 hours after injection, all animals were euthanized and processed for bronchoalveolar lavage (BAL) fluid collection from bilateral lungs and formalin-fixation of lung tissue pathology studies. [table]
# [1] = lung histology at 24 hours of ALI, treatment at 4 or 8 hours of ALI, all dosages, vs model
# [2] = single oral dose at 4 or 8 hours of ALI (F-I 1, 3, 10 mg/kg; DEX 3 mg/kg), BAL at 24 hours, vs Vehicle group
structure (smiles),measurement,setting,value
Cc1cccc(COc2ccc(Sc3ccoc3C3NC(=O)NC3=O)cc2)c1 (stereo not drawn) [compound of formula (F-I)],therapeutic efficacy at lower doses,1 mg/kg via oral gavage at 4 or 8 hours of ALI,significant therapeutic efficacy
same,overall efficacy at 10 mg/kg,"10 mg/kg at 4 hours and 8 hours of ALI, conclusion",better
same,dose dependence of lung tissue protection,"1, 3, 10 mg/kg, dosing at 4 or 8 hours of ALI, histology",no clear dose-dependent lung tissue protection
same,"overall therapeutic efficacy, dosing at 8 hours vs 4 hours of ALI","conclusion, dosing at 8 hours compared with 4 hours of ALI",slightly better
same,"efficacy in BAL fluid analysis, comparison of doses",dose of 10 mg/kg compared with 1 and 3 mg/kg,best efficacy
same,alveolar damages (lung histology),[1],reduction
same,bronchial and arteriole damages (lung histology),[1],reduction
same,total lung injury (lung histology),[1],reduction
same,neutrophils in BAL fluid,[2],clear trend of dose-dependent reduction; also recorded: reduced
same,total inflammatory cells in BAL fluid,[2],clear trend of dose-dependent reduction; also recorded: reduced
same,"effect on BAL fluid cells, treatment at 8 hours vs 4 hours of ALI",treatment at 8 hours of ALI compared to 4 hours of ALI,better effect than that at 4 hours of ALI
same,"lung histology efficacy, treatment at 8 hours vs 4 hours of ALI","treatment at 8 hours of ALI compared to 4 hours of ALI, histology at 24 hours",better efficacy
